From patent US20240108598A1, “Danegaptide for Use in the Treatment or Prevention of a Kidney Disease” (CIANA THERAPEUTICS APS, priority 2021, published 2024)

Columns and labels:
[1] = biological target: T1, Cx43 hemichannels (Homo sapiens, UniProt P17302); assay: Carboxyfluorescein dye uptake assay in primary hPTECs; type: cell-based; conditions: TGFβ1 10 ng/mL alone, 48 h
T1 construct: host or cells: HK2 human kidney proximal tubule epithelial cell line
Description: (§1) In panel A, HK2 cells were cultured in low glucose (5 mM) with/without TGFβ1 (10 ng/ml)±danegaptide (50, 100 and 1000 nM) for 48 h and cell viability assessed. Results are presented as mean±SEM, n=3. […] Addition of danegaptide (50 or 100 nM) reduced dye uptake, returning fluorescence intensity to control levels. Intensity is expressed as percentage compared to low glucose control and is representative of 3 separate experiments. Data is presented as mean±SEM, n=3 with key significances indicated (**P<0.01, ***P<0.001); one-way ANOVA and Tukey's post-test).
HK2 and HPTEC cells were seeded onto fluorodishes (22 mm diameter) and cultured in low glucose DMEM/F12 (5 mmol/1) for 48 h. Following an overnight serum-starvation, cells were incubated with TGFβ1 (10 ng/ml)±danegaptide (100 nM) for 48 h. For subsequent steps, a balanced salt solution (BSS, pH7.0) was used, comprising of NaCl (137 mM), KCl (5.4 mM), MgSO4 (0.8 mM), Na2HPO4 (0.3 mM), KH2PO4 (0.4 mM), NaHCO3 (4.2 mM), HEPES (10 mM) and glucose (5 mM). […] ImageJ was used to quantify dye uptake, where a region of interest (ROI) was drawn around each cell (approx. 10-15 cells/dish) and mean pixel intensity measured. A background fluorescence value was subtracted from each ROI.

[2] = test system: HK2 cells; assay: Lactate dehydrogenase (LDH) release assay; type: cell-based; conditions: TGFβ1 10 ng/mL alone, 48 h
Description: HK2 cells were cultured in low glucose (5 mM) for 48 h, prior to being serum-starved overnight and subsequently treated with TGFβ1 (10 ng/mL)±danegaptide (50 nM-1 μM) for 48 h (FIG. 1A, n=3).
The release of lactate dehydrogenase (LDH) into media as a result of plasma membrane damage is commonly used to evaluate cell death or cytotoxicity. HK2 cells were seeded in 96-well plates and cultured in low glucose DMEM/F12 (5 mM) for 48 h, prior to overnight serum-starvation. Cells were then stimulated for 48 h with TGFβ1 (10 ng/ml)±danegaptide (50-1000 nM). The LDH-cytotoxicity assay kit II (Abcam) was used to quantify LDH according to the manufacturer's instructions.

[3] = test system: primary hPTECs; assay: Inflammation antibody array, supernatant (Table 2); type: cell-based, human; conditions: hPTEC supernatant; TGF-β1 10 ng/mL alone, 48 h
Source text: An inflammation antibody array was used to assess regulation of 31 candidate inflammatory proteins in supernatant from hPTEC cells treated with TGFβ1±danegaptide. Results are representative of 3 separate experiments and presented as mean±SEM, n=3 with key significances indicated (*P<0.05, **P<0.01, ***P<0.001; one-way ANOVA and Tukey's post-test).
A proteome profiler array (Human Cytokine Array Kit from R&D Systems, Oxfordshire, UK) was used, to determine if danegaptide negates TGFβ1-induced changes in expression and secretion of key pro-inflammatory mediators. Primary hPTECs were cultured as described above and treated with TGFβ1 (10 ng/mL)±danegaptide (100 nM) for 48 h.

[4] = biological target: T1, Cx43 hemichannels; assay: Carboxyfluorescein dye uptake assay in HK2 cells; type: cell-based; conditions: TGFβ1 10 ng/mL alone, 48 h
Description: as §1
HK2 and HPTEC cells were seeded onto fluorodishes (22 mm diameter) and cultured in low glucose DMEM/F12 (5 mmol/1) for 48 h. Following an overnight serum-starvation, cells were incubated with TGFβ1 (10 ng/ml)±danegaptide (100 nM) for 48 h. For subsequent steps, a balanced salt solution (BSS, pH7.0) was used, comprising of NaCl (137 mM), KCl (5.4 mM), MgSO4 (0.8 mM), Na2HPO4 (0.3 mM), KH2PO4 (0.4 mM), NaHCO3 (4.2 mM), HEPES (10 mM) and glucose (5 mM). To induce dye uptake, cells were exposed to Ca^2+-free BSS (zero CaCl2+EGTA (1 mM)) plus carboxyfluorescein (200 μM) for 10 min, followed by a 10 min period in Ca^2+-containing BSS (1.3 mM) plus carboxyfluorescein (200 μM). Dishes were subsequently washed with Ca^2+-containing BSS (12 mls). Images were acquired with a Cool Snap HQ CCD camera (Roper Scientific) and Metamorph software (Universal Imaging Corp., Marlow, Bucks, UK). ImageJ was used to quantify dye uptake, where a region of interest (ROI) was drawn around each cell (approx. 10-15 cells/dish) and mean pixel intensity measured. A background fluorescence value was subtracted from each ROI.

[5] = test system: primary hPTECs; assay: qPCR of cell cycle and reno-protective marker mRNA; type: cell-based, human; conditions: TGFβ1 10 ng/mL alone, 12 h
Description: Primary hPTECs were cultured in low (5 mM) glucose±TGFβ1 (10 ng/mL)±danegaptide (100 nM) for 12 h. […] Danegaptide (100 nM) negated the increase in p16, p21, cyclinD1 (▴▴▴P<0.001; mean±SEM, n=3) and partly reversed the TGFβ1-evoked change in Klotho.
To determine if danegaptide can negate hemichannel-mediated regulation of common cell cycle and reno-protective markers, hPTECs were incubated with TGFβ1 (10 ng/mL)±danegaptide (100 nM) for 12 h and expression of candidate gene mRNA assessed through qPCR analysis.
RNA was extracted using an RNeasy mini kit (QIAGEN) and reverse transcribed (Invitrogen). Real-time PCR (SYBR GreenER, Invitrogen) was performed using a StepOne Plus instrument (Applied Biosystems Inc, Foster City, CA). cDNA expression was obtained by comparing to a standard curve of serially-diluted cDNA. The following primers were used: p16 (forward: […], reverse: […]), p21 (forward: […], reverse: […]), cyclinD1 (forward: […], reverse: […]), Klotho (forward: […], reverse: […]). Melt curve analysis confirmed primer specificity and checked for potential contamination.

T1 sequence (P17302 whole entry): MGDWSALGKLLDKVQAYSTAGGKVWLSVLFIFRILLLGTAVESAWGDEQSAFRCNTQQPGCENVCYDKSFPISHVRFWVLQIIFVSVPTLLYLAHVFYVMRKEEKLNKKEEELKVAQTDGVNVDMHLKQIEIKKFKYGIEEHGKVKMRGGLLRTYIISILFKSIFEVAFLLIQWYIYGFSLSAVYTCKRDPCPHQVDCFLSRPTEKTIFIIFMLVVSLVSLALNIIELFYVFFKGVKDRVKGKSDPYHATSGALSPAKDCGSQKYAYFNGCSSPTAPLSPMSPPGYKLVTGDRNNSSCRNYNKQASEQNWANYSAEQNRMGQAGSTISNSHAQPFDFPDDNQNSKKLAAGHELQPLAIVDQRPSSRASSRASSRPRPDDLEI

TGFβ1: Recombinant hTGFβ1 (Sigma); pro-fibrotic cytokine used to stimulate the cells [reference compound]
carboxyfluorescein dye uptake, of control [1]: 310.8±38.6%
LDH release compared to control [2]: 109.3±11.3%
Angiogenin in supernatant (% compared to control) [3]: 184 ± 13.2%
Cystatin C in supernatant (% compared to control) [3]: 169 ± 19.7%
DPPIV in supernatant (% compared to control) [3]: 222 ± 24.3%
ENA 78 in supernatant (% compared to control) [3]: 193 ± 17.7%
Endoglin in supernatant (% compared to control) [3]: 101 ± 10.6%
FGF7 in supernatant (% compared to control) [3]: 125 ± 11.3%
Flt 3 Ligand in supernatant (% compared to control) [3]: 179 ± 6.5%
G-CSF in supernatant (% compared to control) [3]: 171 ± 7.3%
GM-CSF in supernatant (% compared to control) [3]: 213 ± 33.3%
HGF in supernatant (% compared to control) [3]: 85 ± 15.8%
ICAM-1 in supernatant (% compared to control) [3]: 191 ± 13.0%
IFNg in supernatant (% compared to control) [3]: 123 ± 11.0%
IGFBP-2 in supernatant (% compared to control) [3]: 259 ± 49.6%
IGFBP-3 in supernatant (% compared to control) [3]: 147 ± 7.0%
IL1A in supernatant (% compared to control) [3]: 109 ± 14.8%
IL3 in supernatant (% compared to control) [3]: 127 ± 30.6%
IL8 in supernatant (% compared to control) [3]: 138 ± 48.4%
IL12 p70 in supernatant (% compared to control) [3]: 74 ± 11.5%
IL13 in supernatant (% compared to control) [3]: 95 ± 16.4%
Kallikrein 3 in supernatant (% compared to control) [3]: 75 ± 5.61%
LIF in supernatant (% compared to control) [3]: 249 ± 32.1%
MCP-1 in supernatant (% compared to control) [3]: 171 ± 14.3%
MMP-9 in supernatant (% compared to control) [3]: 41 ± 8.8%
PDGF-AA/BB in supernatant (% compared to control) [3]: 137 ± 9.7%
RAGE in supernatant (% compared to control) [3]: 170 ± 16.3%
RANTES in supernatant (% compared to control) [3]: 140 ± 8.6%
Serpin E1 in supernatant (% compared to control) [3]: 91 ± 4.7%
TFF3 in supernatant (% compared to control) [3]: 114 ± 22.2%
TNF-α in supernatant (% compared to control) [3]: 176 ± 5.5%
Thrombospondin-1 in supernatant (% compared to control) [3]: 120 ± 24.8%
VEGF in supernatant (% compared to control) [3]: 209 ± 43.3%
carboxyfluorescein dye uptake, of control [4]: 354.9±32.6%
Klotho mRNA expression, of control [5]: 43.3±3.8%
cyclinD1 mRNA expression, of control [5]: 253.2±7.7%
p16 mRNA expression, of control [5]: 358.8±21.1%
p21 mRNA expression, of control [5]: 221.8±12.9%
